Several values for one entry are separate records, joined by “and”; a condition that tells them apart may be missing. Identical values can stand only once.
Columns and labels:
[1] = test system: Botrytis cinerea Bc97 (DSM 32469); assay: Apple test (wound inoculation), Botrytis cinerea Bc97; type: in vivo; settings: apples Jonagold Honsel, 20° C., 6 days; Aureobasidium 5×10^6 cells/ml total; fludioxonil 0.125 g/l, cyprodinil 0.1875 g/l
Protocol: The effect of the Aureobasidium pullulans strains AP 241 (DSM 32467), AP 268 (DSM 32468), DSM 14940 and DSM 14941 (individually or in combination), together with the chemical fungicides cyprodinil and fludioxonil (individually or in combination), against the fungal plant pathogens Botrytis and Neofabreaea was determined in an apple test. 12 untreated apples of the same cultivar, having a uniform degree of maturity and size, were used for each treatment. Prior to the test, the apples were surface-sterilized for three minutes in 70% ethanol and dried in a clean bench. Four wounds, having a wound diameter of 5 mm, were made at equal distances in each apple in the equatorial plane between the calyx and the stem using a sterile pipette tip. […]
(§1) The effectiveness of the inhibition of the pathogen was calculated for test solutions 2 to 4 from the diameters of the areas of decay, which were measured at the end of the storage period. […]
(§2) According to the Colby formula (S. R. Colby “Calculating synergistic and antagonistic responses of herbicide combinations,” Weeds 15, pages 20 to 22, 1967), expected values (E) of the effect of the combination of Aureobasidium and the chemical fungicide (test solution 4) were calculated from the effectiveness (WG) figures of the individual components in test solutions 2 and 3 according to the following formula: […]

[2] = test system: Pezicula malicorticis 160622 (DSM 62715); assay: Apple test (wound inoculation), Pezicula malicorticis 160622; type: in vivo; settings: apples Elstar Fuchshof, 20° C., 16 days; Aureobasidium overall 1×10^7 cells/ml; fludioxonil 0.125 g/l, cyprodinil 0.1875 g/l
Protocol: The effect of the Aureobasidium pullulans strains AP 241 (DSM 32467), AP 268 (DSM 32468), DSM 14940 and DSM 14941 (individually or in combination), together with the chemical fungicides cyprodinil and fludioxonil (individually or in combination), against the fungal plant pathogens Botrytis and Neofabreaea was determined in an apple test. 12 untreated apples of the same cultivar, having a uniform degree of maturity and size, were used for each treatment. Prior to the test, the apples were surface-sterilized for three minutes in 70% ethanol and dried in a clean bench. Four wounds, having a wound diameter of 5 mm, were made at equal distances in each apple in the equatorial plane between the calyx and the stem using a sterile pipette tip. Immediately after the creation of the four artificial wounds, 10 μl of different test solutions (preparations) was applied to each apple. Thereafter, the apples were stored. An area of decay formed around the wounds, the diameter of the area representing a measure of the spread of the infection with the pathogen. For the evaluation, the diameters of the punctures of 0.5 cm each were deducted from the diameter of the decay area.
The 4 test solutions that were each placed in one of the 4 wounds of each apple were: • 1. Pathogen (negative control) • 2. Pathogen and Aureobasidium pullulans (individually or in combination) • 3. Pathogen and chemical fungicide (individually or in combination) • 4. Pathogen and Aureobasidium pullulans (individually or in combination) and chemical fungicide (individually or in combination)
as §1, §2
If the measured effectiveness of the combination of the Aureobasidium pullulans strains and the chemical fungicide (test solution 4) is greater than the calculated expected value (E), this is referred to as a synergistic effect (the individual components potentiate each other in an over-additive effect). The synergism factor is a measure of the synergistic effect and was calculated as the quotient from the effectiveness of the combination of the substances or components (test solution 4) and the calculated expected value (E). […]

## Cc1cc(C2CC2)nc(Nc2ccccc2)n1 [cyprodinil]
[1]
  Mean diameter of decay areas: 2.80 cm and 3.14 cm and 2.21 cm and 2.52 cm and 3.63 cm and 3.51 cm and 3.38 cm
[2]
  Effectiveness (decrease in diameter of decay area vs. negative control): 17.0%
  Mean diameter of decay areas: 1.61 cm

## N#Cc1c[nH]cc1-c1cccc2c1OC(F)(F)O2 [fludioxonil]
[2]
  Effectiveness (decrease in diameter of decay area vs. negative control): −3.8%
  Mean diameter of decay areas: 1.91 cm

Source: patent publication US20200275665A1, “PREPARATION COMPRISING AT LEAST ONE CHEMICAL FUNGICIDE AND A MIXTURE COMPRISING AUREOBASIDIUM PULLULANS STRAINS” (Erber Aktiengesellschaft, priority 2017, published 2020)
